{
  "source": "patent US20240398787A1",
  "about": "“TREATMENT OF MAJOR DEPRESSIVE DISORDER” (AbbVie Inc., priority 2021, published 2024)",
  "key": {"[1]": {"experiment": "Weight changes, Clinical Study A", "format": "in vivo, human", "description": "(§1) A global, multicenter, randomized, double-blind (DB), placebo-controlled, parallel-group, fixed-dose study compared cariprazine 1.5 mg/day and cariprazine 3 mg/day with placebo as an adjunctive treatment to ongoing ADT in outpatients with a diagnosis of MDD (via the Diagnostic and Statistical Manual of Mental Disorders, Fifth Edition [DSM-5]) having an inadequate response, as measured by the modified Antidepressant Treatment Response Questionnaire (ATRQ), to 1 to 3 antidepressants administered during the current episode at an adequate dose and adequate duration. Adequate dose was defined as a dose above the minimum labeled dose (per package insert). Adequate duration was defined as continuous ADT treatment for at least 6 weeks, with a minimum of 3 of 6 weeks above the minimal dose.\n(§2) The study consisted of up to 14 days screening (with up to an additional 7 days of needed) and washout of prohibited medications followed by 6 weeks of double-blind (DB) treatment followed by a 4-week safety follow-up. At the end of the screening period, patients meeting the entry criteria for the study were randomized (1:1:1) to 1 of 3 double-blind treatment groups. Study treatment groups were: cariprazine 1.5 mg/day+antidepressant therapy and cariprazine 3 mg/day+antidepressant therapy. The control group received matching placebo+antidepressant therapy.\n(§3) Dosage/Dose Regimen: Investigational product (cariprazine or placebo) in the form of capsules packaged in blister packs will be provided. No investigational product was administered during the screening/washout period; patients continued the same antidepressant and dose they were on at screening. Patients were taking more than one antidepressant at screening, regardless of the indication, discontinued all other antidepressants prior to baseline (Visit 2). During the double-blind treatment period (6 weeks), patients were administered 1 capsule orally per day in addition to their ongoing ADT. Patients in the 1.5 mg/day+ADT arm were administered 1.5 mg+ADT starting at Visit 2 (Week 0). Patients in the 3 mg/day+ADT arm were administered 1.5 mg+ADT starting at Visit 2 (Week 0) for 2 weeks and then titrate to 3 mg/day+ADT starting at Visit 4 (Week 2). Patients were supplied with identically appearing capsules of either cariprazine 1.5 mg, cariprazine 3 mg, or placebo.\nA randomized, double-blind, placebo-controlled, multicenter trial with 759 participants was conducted in United States, Bulgaria, Estonia, Germany, Hungary, Ukraine, and the United Kingdom. […]"}, "[2]": {"system": "patients with major depressive disorder (MDD)", "experiment": "Clinical Global Impressions-Severity (CGI-S) score, Clinical Study A", "format": "in vivo, human", "settings": "MMRM; for LS mean change from baseline, CGI-S score / LSMD vs placebo, CGI-S score: week 6", "description": "as §1, §2, §3\n(§4) A randomized, double-blind, placebo-controlled, multicenter trial with 759 participants was conducted in United States, Bulgaria, Estonia, Germany, Hungary, Ukraine, and the United Kingdom. Following a screening period of up to 14 days (with up to an additional 7 days if needed), which included a washout of prohibited psychotropic medications except for ongoing ADT, patients with a partial response to their antidepressant monotherapy were randomized into three treatment groups (1:1:1). One group received cariprazine 1.5 mg/d+ADT, one received cariprazine 3.0 mg/d+ADT, and one group received placebo+ADT. All participants randomized to cariprazine began on 1.5 mg/d; cariprazine 1.5 mg/d patients remained at that dosage, while cariprazine 3.0 mg/d patients received 1.5 mg/d for 2 weeks and increased to 3.0 mg/d on day 15.\nThe primary and secondary efficacy parameters were change from baseline to week 6 in Montgomery-Åsberg Depression Rating Scale (MADRS) total score and Clinical Global Impressions-Severity (CGI-S) score, respectively (screening, baseline, and weeks 1, 2, 4, and 6). Additional efficacy parameters (screening, baseline, and ≥1 double-blind visit) included: MADRS response (≥50% MADRS total score reduction) and remission (MADRS total score ≤10); change from baseline in HAMD-17 total score and Hamilton Anxiety Rating Scale (HAM-A) total score (32); and Clinical Global Impressions-Improvement (CGI-I) score and response (CGI-I score ≤2).\nThe CGI-S (Guy 1976) is a clinician-rated scale that measures the overall severity of a patient's illness in comparison with the severity in other patients the physician has observed. […]"}, "[3]": {"system": "patients with major depressive disorder (MDD)", "experiment": "Adverse events and discontinuations during double-blind treatment period, Clinical Study A", "format": "in vivo, human", "settings": "for TEAE: Akathisia / TEAE: Headache / TEAE: Insomnia / TEAE: Nausea / TEAE: Somnolence: N = 252; for Deaths: safety population; for Treatment-emergent adverse events (TEAEs): safety population N = 252", "description": "as §1, §2, §3\nas §4, with “Following” for “A randomized, double-blind, placebo-controlled, multicenter trial with 759 participants was conducted in United States, Bulgaria, Estonia, Germany, Hungary, Ukraine, and the United Kingdom. Following”\nTable 15 summarizes the most frequent TEAEs occurring in ≥5% in any treatment group, and Table 16 summarizes changes in weight. An AE was considered a treatment-emergent adverse event (TEAE) if the AE began or worsened (increased in severity or became serious) on or after the first dose of double-blinded investigational product."}, "[4]": {"system": "MDD patients who had inadequate response to ongoing antidepressant treatment", "settings": "adjunctive, Durgam et al. 2016, cited from earlier work"}, "[5]": {"settings": "1.5 mg/day + ADT, double-blind period"}, "[6]": {"settings": "1.5 mg/day + ADT, randomized population N = 252"}, "[7]": {"settings": "3.0 mg/day + ADT, double-blind period"}, "[8]": {"settings": "3 mg/day + ADT, randomized population N = 253"}},
  "note": "Read-outs that look alike come from different tables or passages of the source.",
  "data": [
    {"compound": "CN(C)C(=O)N[C@H]1CC[C@H](CCN2CCN(c3cccc(Cl)c3Cl)CC2)CC1", "note": "[Cariprazine, trans-N-{4-[2-[4-(2,3-dichlorophenyl)piperazin-1-yl]ethyl]cyclohexyl}-N′,N′-dimethylurea]", "values": [
      {"measurement": "Weight change from baseline, mean (SD)", "setting": "[1]; 1.5 mg + ADT, n = 252", "result": "0.68 (2.5) kg"},
      {"measurement": "Weight increase ≥7% from baseline", "setting": "[1]; 1.5 mg + ADT, n = 252", "result": "10 (4.0) n (%)"},
      {"measurement": "Weight change from baseline, mean (SD)", "setting": "[1]; 3 mg + ADT, n = 252", "result": "0.78 (2.8) kg"},
      {"measurement": "Changes in weight at the end of treatment", "setting": "[1]; all treatment groups", "result": "< 1", "unit": "kg"},
      {"measurement": "LS Mean (SE) change from baseline, CGI-S score", "setting": "[2]; 1.5 mg/day + ADT, week 1", "result": "−0.3 (0.1)"},
      {"measurement": "LSMD (95% CI) vs placebo + ADT, CGI-S score", "setting": "[2]; 1.5 mg/day + ADT, week 1", "result": "−0.1 (−0.2, 0)"},
      {"measurement": "LS Mean (SE) change from baseline, CGI-S score", "setting": "[2]; 1.5 mg/day + ADT, week 2", "result": "−0.7 (0.1)"},
      {"measurement": "LSMD (95% CI) vs placebo + ADT, CGI-S score", "setting": "[2]; 1.5 mg/day + ADT, week 2", "result": "−0.1 (−0.2, 0.1)"},
      {"measurement": "LS Mean (SE) change from baseline, CGI-S score", "setting": "[2]; 1.5 mg/day + ADT, week 4", "result": "−1.1 (0.1)"},
      {"measurement": "LSMD (95% CI) vs placebo + ADT, CGI-S score", "setting": "[2]; 1.5 mg/day + ADT, week 4", "result": "−0.3 (−0.4, −0.1)"},
      {"measurement": "LS mean change from baseline, CGI-S score", "setting": "[2]; 1.5 mg/day + ADT", "result": "−1.4 (0.1)"},
      {"measurement": "LSMD vs placebo, CGI-S score", "setting": "[2]; 1.5 mg/day + ADT", "result": "−0.3 (−0.5, −0.1)"},
      {"measurement": "LS Mean (SE) change from baseline, CGI-S score", "setting": "[2]; 3 mg/day + ADT, week 1", "result": "−0.3 (0.1)"},
      {"measurement": "LSMD (95% CI) vs placebo + ADT, CGI-S score", "setting": "[2]; 3 mg/day + ADT, week 1", "result": "0 (−0.1, 0.1)"},
      {"measurement": "LS Mean (SE) change from baseline, CGI-S score", "setting": "[2]; 3 mg/day + ADT, week 2", "result": "−0.6 (0.1)"},
      {"measurement": "LSMD (95% CI) vs placebo + ADT, CGI-S score", "setting": "[2]; 3 mg/day + ADT, week 2", "result": "0 (−0.2, 0.1)"},
      {"measurement": "LS Mean (SE) change from baseline, CGI-S score", "setting": "[2]; 3 mg/day + ADT, week 4", "result": "−1.0 (0.1)"},
      {"measurement": "LSMD (95% CI) vs placebo + ADT, CGI-S score", "setting": "[2]; 3 mg/day + ADT, week 4", "result": "−0.1 (−0.3, 0.1)"},
      {"measurement": "LS mean change from baseline, CGI-S score", "setting": "[2]; 3 mg/day + ADT", "result": "−1.3 (0.1)"},
      {"measurement": "LSMD vs placebo, CGI-S score", "setting": "[2]; 3 mg/day + ADT", "result": "−0.2 (−0.4, 0)"},
      {"measurement": "TEAE: Akathisia", "setting": "[3]; 1.5 mg/day + ADT", "result": "13 (5.2) n (%)"},
      {"measurement": "TEAE: Headache", "setting": "[3]; 1.5 mg/day + ADT", "result": "22 (8.7) n (%)"},
      {"measurement": "TEAE: Insomnia", "setting": "[3]; 1.5 mg/day + ADT", "result": "18 (7.1) n (%)"},
      {"measurement": "TEAE: Nausea", "setting": "[3]; 1.5 mg/day + ADT", "result": "20 (7.9) n (%)"},
      {"measurement": "TEAE: Somnolence", "setting": "[3]; 1.5 mg/day + ADT", "result": "13 (5.2) n (%)"},
      {"measurement": "Any Extrapyramidal Symptoms (EPS) TEAEs", "setting": "[3]; [5]", "result": "25 (9.9) n (%)"},
      {"measurement": "Treatment-emergent Serious AE (TESAE)", "setting": "[3]; [5]", "result": "1 (0.4) n (%)"},
      {"measurement": "Deaths", "setting": "[3]; [5]", "result": "0 n (%)"},
      {"measurement": "Treatment-emergent adverse events (TEAEs)", "setting": "[3]; [5]", "result": "125 (49.6) n (%)"},
      {"measurement": "Premature discontinuation due to Death", "setting": "[3]; [6]", "result": "0 n (%)"},
      {"measurement": "Premature discontinuation due to Lack of Efficacy", "setting": "[3]; [6]", "result": "2 (0.8) n (%)"},
      {"measurement": "TEAE: Akathisia", "setting": "[3]; 3.0 mg/day + ADT", "result": "20 (7.9) n (%)"},
      {"measurement": "TEAE: Headache", "setting": "[3]; 3.0 mg/day + ADT", "result": "11 (4.4) n (%)"},
      {"measurement": "TEAE: Insomnia", "setting": "[3]; 3.0 mg/day + ADT", "result": "16 (6.3) n (%)"},
      {"measurement": "TEAE: Nausea", "setting": "[3]; 3.0 mg/day + ADT", "result": "16 (6.3) n (%)"},
      {"measurement": "TEAE: Somnolence", "setting": "[3]; 3.0 mg/day + ADT", "result": "11 (4.4) n (%)"},
      {"measurement": "Any Extrapyramidal Symptoms (EPS) TEAEs", "setting": "[3]; [7]", "result": "38 (15.1) n (%)"},
      {"measurement": "TEAE leading to discontinuation from study", "setting": "[3]; [7]", "result": "18 (7.1) n (%)"},
      {"measurement": "Treatment-emergent Serious AE (TESAE)", "setting": "[3]; [7]", "result": "1 (0.4) n (%)"},
      {"measurement": "Deaths", "setting": "[3]; [7]", "result": "0 n (%)"},
      {"measurement": "Treatment-emergent adverse events (TEAEs)", "setting": "[3]; [7]", "result": "124 (49.2) n (%)"},
      {"measurement": "Premature discontinuation due to Adverse Event", "setting": "[3]; [8]", "result": "18 (7.1) n (%)"},
      {"measurement": "Premature discontinuation due to Death", "setting": "[3]; [8]", "result": "0 n (%)"},
      {"measurement": "Premature discontinuation due to Lack of Efficacy", "setting": "[3]; [8]", "result": "0 n (%)"},
      {"measurement": "Most common adverse events occurring at ≥5% in the cariprazine groups", "setting": "[3]; six-week study period", "result": "akathisia, nausea, insomnia, headache and somnolence"},
      {"measurement": "Safety results (overall)", "setting": "[3]; six-week study period", "result": "no new safety signals identified"},
      {"measurement": "LSMD vs placebo, MADRS total score", "setting": "[4]; 1-2 mg per day variable dosing", "result": "−0.9"},
      {"measurement": "LSMD vs placebo, MADRS total score", "setting": "[4]; 2-4.5 mg per day variable dosing", "result": "−2.2"}
    ]}
  ]
}
